Measured values: patent publication US11213593B2, “Sequence-specific cellular uptake of spherical nucleic acid nanoparticle conjugates” (priority 2014, dated 2022)

Legend:
C166 cells [1] = experiment: Confocal microscopy of QD-SNAs in C166 cells; type: cell-based, mouse; conditions: C166 cells co-treated with equal concentrations of a QD-SNA and an AuNP-SNA of the other shell
Description: Five nanometer AuNP-SNAs and QD-SNAs comprised of oligonucleotides listed in Table 2 were prepared to study the effect of the poly G shell on the cellular uptake of SNAs of different core compositions (FIG. 6). All sequences are 28 bases long and terminated with a dibenzocyclooctyl (DBCO) group. The AuNP-SNAs and QD-SNAs were synthesized using a previously described strategy [Zhang et al., Nat Mater 12: 741-746 (2013), incorporated herein by reference in its entirety]. In one set of experiments, C166 cells were treated with equal concentrations of T-rich QD-SNAs and poly G AuNP-SNAs. In another set of experiments, cells were treated with equal concentrations of T-rich AuNP-SNAs and poly G QD-SNAs. Confocal microscopy was then used to track the fluorescent signal of the QDs that entered cells. […] To further confirm, ICP-MS was used to analyze the Au content and Cd content in C166 cells treated with T-rich AuNP-SNAs or QD-SNAs alone, poly G AuNP-SNAs or QD-SNAs alone, a combination of T-rich AuNP-SNAs and poly G QD-SNAs, and a combination of T-rich QD-SNAs and poly G AuNP-SNAs. C166 cells treated with poly G AuNP-SNAs have 3 times higher Au content than cells treated with T-rich AuNP-SNAs. […] Cells treated with poly G AuNP-SNAs and T-rich QD-SNAs have higher Au content compared to Cd content, and this trend is reversed for cells treated with T-rich AuNP-SNAs and poly G QD-SNAs (FIG. 6b).

C166 cells [2] = experiment: ICP-MS of Au and Cd content in C166 cells (competitive cellular uptake assay); type: cell-based, mouse
Description: Five nanometer AuNP-SNAs and QD-SNAs comprised of oligonucleotides listed in Table 2 were prepared to study the effect of the poly G shell on the cellular uptake of SNAs of different core compositions (FIG. 6). All sequences are 28 bases long and terminated with a dibenzocyclooctyl (DBCO) group. The AuNP-SNAs and QD-SNAs were synthesized using a previously described strategy [Zhang et al., Nat Mater 12: 741-746 (2013), incorporated herein by reference in its entirety]. In one set of experiments, C166 cells were treated with equal concentrations of T-rich QD-SNAs and poly G AuNP-SNAs. In another set of experiments, cells were treated with equal concentrations of T-rich AuNP-SNAs and poly G QD-SNAs. Confocal microscopy was then used to track the fluorescent signal of the QDs that entered cells. […] To further confirm, ICP-MS was used to analyze the Au content and Cd content in C166 cells treated with T-rich AuNP-SNAs or QD-SNAs alone, poly G AuNP-SNAs or QD-SNAs alone, a combination of T-rich AuNP-SNAs and poly G QD-SNAs, and a combination of T-rich QD-SNAs and poly G AuNP-SNAs. […]
ICP-MS. After adding 5 μL of 5 ppm indium (internal standard) and 5 mL of matrix solution (2% HCl and 2% HNO3), the Au-197 content of the resultant solution was measured by an X Series II ICP-MS (ThermoFisher) after subtracting the background gold content of untreated cells. […]

## T-rich QD-SNAs: CdSe quantum dot, polymer-coated, with DBCO-terminated 28-base T-rich DNA, SEQ ID NO: 8 (DNA TATCGTATTTACTCTGATTTTTTTTTTT; DBCO-terminated DNA clicked to polymer-coated CdSe quantum dot, further chemistry not given here)
C166 cells [1]
  intracellular fluorescence of QDs: very little intracellular fluorescence

## poly G QD-SNAs: CdSe quantum dot, polymer-coated, with DBCO-terminated 28-base DNA (GGT)5T13, SEQ ID NO: 7 (DNA GGTGGTGGTGGTGGTTTTTTTTTTTTTT; DBCO-terminated DNA clicked to polymer-coated CdSe quantum dot, further chemistry not given here)
C166 cells [1]
  intracellular fluorescence of QDs: significantly higher intracellular fluorescence
C166 cells [2]; C166 cells
  Cd content of cells versus cells treated with T-rich QD-SNAs: three-fold higher Cd content
C166 cells [2]; C166 cells treated with a combination of AuNP-SNAs and QD-SNAs
  competitive cellular uptake (Au versus Cd content): preferentially enter cells
